In patent US20110053160A1, “HCV NS3/4A REPLICON SHUTTLE VECTORS” (priority 2009, published 2011) one finds IC50 data, which are given here for one compound.

pIC50: −log10 of the molar value. Where two headings read alike, the source gives them in different places.

The subject of experiment [1] is HCV GT-1b Con1 replicon pPI-luc/ET/SC in cured Huh7 cells. The experiment can be described thus: Transient replicon assay, IC50 determination (firefly luciferase reporter), parent replicon. Type of experiment: cell-based. Particulars: Hepatitis C virus, GT1B, Huh-7, luciferase read 72 hours after addition of inhibitor, read-out: IC50 VX-950. A general note: A replicon is a self-replicating genome or part of one, used to study replication in cells.

Experiment [2] in a line: Transient replicon assay, IC50 determination (firefly luciferase reporter), shuttle vector replicons with patient-derived NS3/4A. Type of experiment: cell-based, HCV. Particulars: Hepatitis C virus, Huh-7, 72 h, luciferase read 72 hours after addition of inhibitor, read-out: IC50 VX-950. The protocol:
DNA sequences encoding the NS3/4A protein were generated from plasma obtained from patients infected with HCV using reverse transcription of RNA followed by PCRamplification of the reverse-transcribed product. Reverse transcription of RNA was performed using Taqman Reverse Transcription Reagents (Applied Biosystems, Foster City, Calif., USA) using the primer, 5′-ACCAGGTCCTCSGTGGAGG-3′ (SEQ ID NO:9) and according to the manufacturers' protocol. The synthesized cDNA was then PCR-amplified with the GC RICH PCR system (Roche Applied Science) to ensure high fidelity and robust yields. Annealing temperatures in the range of 50-52° C. were used depending on patient sample and primer combinations. Two PCR reactions with two independent primer sets used for the first round PCR were as follows:
Five micrograms of DNA was linearized by Sca I restriction enzyme (Roche Applied Science). After overnight digestion at 37° C., the DNA was purified using Qiagen PCR purification kit. Eight microliters of linearized DNA was used for the in vitro transcription using T7 RiboMAX Express Large Scale RNA Production System kit following manufacturer's protocol (Promega, Madison, Wis., USA). After 2 hours of incubation at 37° C., DNase treatment was performed for 20 minutes at 37° C. to remove the DNA template. In vitro transcribed RNA was then purified using RNeasy mini kit following manufacturer's protocol (Qiagen).
Cured hepatoma cell line Huh7 was obtained from R. Bartenschlager. Cells were cultured at 37° C. in a humidified atmosphere with 5% CO2 in Dulbecco's Modified Eagle Medium (DMEM) supplemented with Glutamax and […] sodium pyruvate (Cat# 10569-010). The medium was further supplemented with 10% (v/v) FBS (Cat# 16000-036) and 1% (v/v) penicillin/streptomycin (Cat# 15140-122). All reagents were from Invitrogen.
Four million cured Huh7 cells were transfected with 10 μg of in vitro transcribed RNA using electroporation. Cells were then resuspended in 12 ml of DMEM containing 5% FBS and plated in 96-well plate at 28,800 cells/well (in 90 μl final volume) Inhibitors were added 24 hours post-transfection in 3 fold dilutions at a final DMSO concentration of 1% and firefly luciferase reporter signal was read 72 hours after addition of inhibitors using the Luciferase Assay system (Promega, cat #E1501). The IC50 values were assessed as the inhibitor concentration at which a 50% reduction in the level of firefly luciferase reporter was observed as compared to the level of firefly luciferase signal without the addition of compounds. […]

In general, pIC50 refers to the IC50 on a negative log10 scale, so that one unit is a factor of ten.

Consider `CCC[C@H](NC(=O)[C@@H]1[C@H]2CCC[C@H]2CN1C(=O)[C@@H](NC(=O)[C@@H](NC(=O)c1cnccn1)C1CCCCC1)C(C)(C)C)C(=O)C(=O)NC1CC1` [VX-950], for which the pIC50 in experiment [1] is 6.60; in experiment [2] (patient isolate 34), 6.57; in experiment [2] (patient isolate 98), 6.69; in experiment [2] (patient isolate 5903), 7.01; in experiment [2] (patient isolate 34026), 7.32; in experiment [2] (patient isolate 52620) it was 7.04. In addition, the negative logarithm of the IC50 (pIC50) in experiment [2] (patient isolate 61793) is 6.42; in experiment [2] (patient isolate 66200) it was 6.48; in experiment [2] (patient isolate 73837-2), 6.64; in experiment [2] (patient isolate 135635) it was 6.40; in experiment [2] (patient isolate 135640) it was 6.41; in experiment [2] (patient isolate 135641), 6.76. Further, the values for the pIC50 in experiment [2] (patient isolate 135649) and in experiment [2] (patient isolate RO256) were 6.97 and 7.03, respectively.
